Laboratory results reported in US20220175787A1, “PATIENT SELECTION FOR ENHANCEMENT OF ANTI-TUMOR IMMUNITY IN CANCER PATIENTS” (G1 Therapeutics Inc., priority 2019, published 2022).

Experiments:
CD8+ T cells = assay type: cell-based, human; conditions: mTNBC patients
[1] = tested on: T-cell clones (T-cell receptor β sequences); experiment: Phase 2 NCT03041311 (E/P/A with or without trilaciclib): TCRB differential abundance analysis in whole blood; assay type: in vivo, human; conditions: for T-cell clonal expansion in responders: trilaciclib responders vs placebo responders and vs trilaciclib non-responders (FIG. 12)
Protocol: (§1) A phase 2 study of carboplatin, etoposide, and atezolizumab with or without trilaciclib in patients with untreated extensive stage small cell lung cancer was initiated (Clinicaltrials.gov identifier NCT03041311). […] a 21-day induction phase and a 21-day maintenance phase. Four induction phase cycles were completed prior to the initiation of the maintenance phase cycle.
In the induction phase, patients received trilaciclib (240 mg/m2 diluted in 250 mL D5W or sodium chloride solution 0.9%) or placebo (250 mL of D5W or sodium chloride solution 0.9%) administered IV once daily on days 1 to 3 of a 21-day cycle of each etoposide/carboplatin/atezolizumab (E/P/A) therapy cycle (up to 4 cycles in total). […] Atezolizumab (1200 mg) in 250 mL sodium chloride solution 0.9% was administered as an IV infusion on day 1 of each 21-day cycle in both the induction and maintenance phases. Atezolizumab was infused over 60 minutes for the first administration and, if tolerated, all subsequent infusions were delivered over 30 minutes. Atezolizumab was administered following the completion of administration of Compound I or placebo, etoposide, and carboplatin.
Analysis of the TCRB locus in blood samples was performed to identify biomarkers of immune response and immunomodulatory activity between the trilaciclib arm and the placebo arm. All samples were sequenced using a 1-rxn TCRB Assay. The number of expanded T-cell clones was determined by the differential abundance analysis of T-cell receptor β sequences in whole blood from patients at after induction and prior to starting maintenance versus baseline.

[2] = tested on: extensive stage small cell lung cancer; experiment: Phase 2 NCT03041311: overall survival by newly expanded clone fraction; assay type: in vivo, human; conditions: SCLC patients on E/P/A above the newly expanded clone fraction median; p=0.04
Protocol: as §1
. […] Atezolizumab (1200 mg) in 250 mL sodium chloride solution 0.9% was administered as an IV infusion on day 1 of each 21-day cycle in both the induction and maintenance phases. Atezolizumab was infused over 60 minutes for the first administration and, if tolerated, all subsequent infusions were delivered over 30 minutes. Atezolizumab was administered following the completion of administration of Compound I or placebo, etoposide, and carboplatin.

[3] = tested on: PD-L1 positive or negative TNBC tumors; experiment: G1T28-04 overall survival by PD-L1 tumor status (Ventana SP142); assay type: in vivo, human; conditions: p=0.005
Protocol: Patient tumors from the G1T28-04 clinical trial described in Example 1 were characterized based on PD-L1 expression scored as negative or positive if <1% or ≥1% of the total tumor area contained PD-L1-labelled immune cells, respectively, using the Ventana SP142 assay. Association of PD-L1 expression with antitumor efficacy was assessed using proportional hazards regression. The groups are divided as follows: Group 1 (gemcitabine+carboplatin only on days 1 and 8 in a 21-day cycles), Group 2 (gemcitabine+carboplatin+trilaciclib on days 1 and 8 in a 21 day cycle), and Group 3 (gemcitabine+carboplatin on days 2 and 9+trilaciclib on days 1, 2, 8, and 9 in a 21-day cycle).

[4] = tested on: TNBC tumors categorized as CDK4/6 independent, dependent or indeterminate; experiment: G1T28-04 subgroup analysis by CDK4/6 dependency signature (PAM50, Lehmann)
Excerpt: Using two established signatures (Prosigna Breast Cancer Prognostic Gene Signature Assay [PAM50] and Lehmann triple-negative breast cancer type 1-4), patient tumors were characterized as CDK4/6 independent, dependent, or indeterminate. […] Because their reliance on the CDK4/6 pathway for proliferation is either unknown or heterogeneous, the remaining PAM50 signature groups (including HER2, normal-like, luminal A, and luminal B) are categorized as CDK4/6 indeterminate.
To address the theoretical risk that trilaciclib could decrease antitumor activity in patients with CDK4/6 dependent tumors by arresting CDK4/6-dependent tumor cells during chemotherapy, an additional prespecified subgroup analysis of the antitumor activity endpoints (objective response, progression-free survival, and overall survival) using two established signatures (PAM50 and Lehmann triple-negative breast cancer type 1-4) was performed to characterize patient tumors as CDK4/6 independent, dependent, or indeterminate.

[5] = tested on: TNBC classified C2 IFN-γ Dominant or not; experiment: G1T28-04 survival by Thorsson Six Class Immune Signature; assay type: in vivo, human; conditions: TNBC classified as C2 IFN-γ Dominant; Groups 2+3 (Group 4) vs Group 1; p=0.036
Excerpt: Tumor samples from patients participating in the clinical trial (Clinical trials.gov identifier NCT02978716) described in Example 1 where assayed by Q^2 Solutions (Morrisville, N.C.) to determine their Six Class Immune Classification as described in Thorsson V, et al. “The Immune Landscape of Cancer.” Immunity, […], 2018, pp. 812-830. doi: 10.1016/j.immuni.2018.03.023 (incorporated herein by reference in its entirety).
Briefly, a six-step procedure was implemented to apply the Thorsson et al. classification to 89 pre-treatment triple negative breast cancer samples secured in the clinical trial described in Example 1. Following RNAseq data procurement, the data was cleaned and homogenized by reconciling gene and sample names across data sources. […] In short, samples in the resulting TCGA expression data were randomly down-sampled to more closely reflect the abundance of PAM50 classes within the clinical trial data (previously derived, see Example 1, Table 7). […]
Survival and response rates between treatment groups within pre-defined immune response groups were determined using a series of pair-wise, two-group tests based on the data derived in the G1T28-04 clinical trial described in Example 1. Additionally, examination of differences in survival and response rates between different immune response categories within a single treatment group were analyzed. […]

[6] = tested on: TNBC with high or low Ayers immune signature score; experiment: G1T28-04 survival by Ayers IFN-γ Signature / Expanded Immune Signature score; assay type: in vivo, human; conditions: Groups 2+3 (Group 4) vs Group 1
Protocol: Tumor samples from patients participating in the clinical trial described in Example 1 where assayed by Q^2 Solutions (Morrisville, N.C.) to determine their Ayers Immune Scores according to Ayers et al., IFN-γ-related mRNA Profile Predicts Clinical Response to PD-1 Blockade, J Clin Invest. 2017127(8)2930-2940. The data was processed using RNA Access, and FPKM normalization prior to log 10 transformation and averaging was performed.
89 samples were analyzed. The calculated signature score for both the IFN-γ Signature and Expanded Immune Signature were unimodel in distribution, and the median score was used to define the “High” and “Low” categories.
Survival and response rates between treatment groups within pre-defined immune response groups were determined using a series of pair-wise, two-group tests based on the data derived in the G1T28-04 clinical trial described in Example 1. Additionally, examination of differences in survival and response rates between different immune response categories within a single treatment group were analyzed.
Kaplan-Meier curves were generated to visualize the overall survival and progression free survival among groups (see FIGS. 8C-8F and 9A-9D). […]

CN1CCN(c2ccc(Nc3ncc4cc5n(c4n3)C3(CCCCC3)CNC5=O)nc2)CC1 [trilaciclib, 2′-((5-(4-methylpiperazin-1-yl)pyridin-2-yl)amino)-7′, 8′-dihydro-6′H-spiro(cyclohexane-1,9′-pyrazino(1′,2′:1,5)pyrrolo(2,3-d)pyrimidin)-6′-one]
Lymphocyte counts and T-cell activation (CD8+ T cells; addition of trilaciclib to gemcitabine and carboplatin): did not preserve lymphocyte counts or enhance T-cell activation | Frequency of CD8+ T cells producing IFN-γ after ex-vivo stimulation (CD8+ T cells; GC plus trilaciclib vs group 1 (FIG. 5)): higher frequency | Number of expanded T-cell clones ([1]; SCLC patients on E/P/A, trilaciclib vs E/P/A only, after induction vs baseline, P=0.01, FIG. 11): significantly higher | Number of newly expanded T-cell clones in responders ([1]; SCLC, E/P/A, responders receiving trilaciclib vs without, p=0.001, FIG. 13): more newly expanded clones | Fraction of newly expanded clones versus all expanded clones in responders ([1]; SCLC, E/P/A, responders receiving trilaciclib vs without, p=0.001, FIG. 14): significantly increased | T-cell clonal expansion in responders ([1]; SCLC, E/P/A): more T-cell clonal expansion | T-cell clonal expansion in responders ([1]; SCLC, E/P/A, listed as Trilaciclib): more clonal expansion | OS HR (trilaciclib versus placebo) [2]: 0.34 | Overall survival compared with patients who did not receive trilaciclib [3]: statistically significant overall survival | Effect of including trilaciclib on chemotherapy efficacy ([4]; TNBC with variable or CDK4/6 dependent tumor (PAM50 Other or Lehmann LAR)): did not antagonize chemotherapy efficacy | Effect of including trilaciclib on chemotherapy efficacy ([4]; TNBC with variable or CDK4/6 independent tumor (PAM50 Basal-Like or Lehmann Other)): did not antagonize chemotherapy efficacy | Overall survival compared with Group 1 (not receiving trilaciclib) [5]: significantly improved overall survival | Overall survival compared with Group 1 (not receiving trilaciclib) ([6]; TNBC with high Ayers Expanded Immune Signature score): significantly improved overall survival | Overall survival compared with Group 1 (not receiving trilaciclib) ([6]; TNBC with high Ayers IFN-γ Signature score, p=0.0194): significantly improved overall survival
